Reference: patent publication US4963552A, “1-substitute-1,2-dihydro-4-((substituted)phenyl)imidazo-[1,5-a] pyrimidine-8-carbonitriles” (American Cyanamid Company, priority 1989, dated 1990)
Counter-ions that a name gives are not always drawn.

Assays:
[1] = tested on: spontaneously hypertensive rats of the Okamoto strain; assay: Reduction of mean arterial blood pressure in spontaneously hypertensive rats; assay type: in vivo, rat; settings: second identical dose at 24 h, measured at 28 h, male SHR, average MABP 160±1.5 mm of mercury
Experimental: These compounds were tested for hypotensive activity by the method of P. S. Chan and D. W. Poorvin, Clinical and Experimental Hypertension, 1 (6), 817-830 (1979). Male, 16 week old, spontaneously hypertensive rats of the Okamoto strain having an average mean arterial blood pressure of 160±1.5 mm of mercury are used in the test. One to three rats are used per test compound. The test compound is suspended in 2% pre-boiled starch at a concentration of 50 mg/ml, and a rat is dosed by gavage at a dose of 100 mg/kg of body weight or less, with 0.9% sodium chloride loading at a dose of 25 ml/kg of body weight. A second identical dose of the test compound, without sodium chloride loading, is given 24 hours later. At 28 hours after the initial dose the mean arterial blood pressure is measured by the method of Chan and Poorvin vide supra. The procedure is repeated in a second and third rat when necessary.

[2] = target: T1, [^3 H]-imipramine receptor (human platelet membranes) (Homo sapiens, UniProt P31645); assay: Inhibition of [^3 H]-imipramine binding to human platelet membranes; settings: 10 μm test compound, 90 minutes at 0° C., duplicate, more than 50% considered active; for inhibition at 10 µM: 1.5 h
T1 construct: Platelet membranes were obtained using the procedure described by Wennogle, L. P., et al; tissue New York Blood Center; host or cells: human platelets (washed, sonicated membranes)
T1 sequence (P31645 whole entry): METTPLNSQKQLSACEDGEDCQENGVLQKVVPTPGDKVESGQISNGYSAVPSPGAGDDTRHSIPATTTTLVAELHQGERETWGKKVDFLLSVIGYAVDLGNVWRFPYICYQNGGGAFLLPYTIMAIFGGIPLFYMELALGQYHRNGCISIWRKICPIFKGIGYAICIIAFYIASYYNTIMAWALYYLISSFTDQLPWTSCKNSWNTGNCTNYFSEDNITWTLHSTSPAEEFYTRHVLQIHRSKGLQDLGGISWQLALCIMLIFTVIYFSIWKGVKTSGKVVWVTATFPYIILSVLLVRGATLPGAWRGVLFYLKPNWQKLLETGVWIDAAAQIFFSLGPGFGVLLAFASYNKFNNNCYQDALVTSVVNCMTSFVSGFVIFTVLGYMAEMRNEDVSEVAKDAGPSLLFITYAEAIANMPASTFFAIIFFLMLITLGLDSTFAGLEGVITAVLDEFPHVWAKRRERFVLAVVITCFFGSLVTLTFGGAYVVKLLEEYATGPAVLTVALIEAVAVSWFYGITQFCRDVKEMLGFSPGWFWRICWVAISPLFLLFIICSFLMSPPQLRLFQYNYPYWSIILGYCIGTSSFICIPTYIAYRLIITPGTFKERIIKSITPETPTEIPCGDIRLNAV
Experimental: The activity of the compounds of this invention as antidepressant agents was verified in the following test which measures the ability of a test compound to inhibit [^3 H]-imipramine binding to human platelet membranes.
Platelet membranes were obtained using the procedure described by Wennogle, L. P., et al., Pharmac. Biochem Behav., 15, 975 (1981). Fresh human platelet concentrates(less than 48 hours old) were obtained from the New York Blood Center. These concentrates were prepared in a citrate-dextrose anticoagulant using standard techniques. Platelets were washed twice by centrifugation (2500 x G, 10 minutes) in 50 volumes of an antiprotease buffer containing 0.005M potassium chloride, 0.12M sodium chloride, 0.05M Tris pH 7.5, 0.025 Units/ml aprotinin, 0.5 μg/m pepstatin, […] bacitracin, 3 mM ethylenediaminetetraacetic acid and 1.0 mM ethylene glycol-bis(β-aminoethyl ether)-N,N'-tetraacetic acid. […] All procedures were conducted at 0° C. using plastic laboratory ware throughout the platelet membrane preparation. Platelets were resuspended in 20 volumes of buffer and sonicated 3 times using 10 second bursts of a Branson sonifier (cell disrupter 350) at setting 6 (standard 3/4 inch horn), keeping the sample on ice throughout the procedure. Platelet membranes were then washed twice at 18,000 x G for 20 minutes with 50 volumes of the antiprotease buffer and resuspended to 3.0 mg protein/ml using the Bradford protein analysis with bovine gamma globulin as standard. Membranes were used immediately or stored frozen in liquid nitrogen.
The displacement of [^3 H]-imipramine binding to human platelet membranes was performed essentially as described by Paul, S. M., et al , Life Sci., 26, 953 (1980) with the following modifications. Membranes (0.3 mg protein) were suspended in antiprotease buffer with both […] [^3 H]-imipramine (New England Nuclear) and displacing drug or buffer in a total volume of 250 μl in glass test tubes. Samples were incubated for 90 minutes at 0° C., then diluted to 5 ml in […] sodium chloride, 0.005M potassium chloride, 0.05 Tris pH 7.5 (wash buffer) and immediately filtered through GF/B Whatman Filters and washed twice with 5 ml of wash buffer. Filters were counted in a liquid scintillation counter after addition of Beckman Hp Scintillant.
Non-specific binding of [^3 H]-imipramine was defined as that fraction (generally 35%) of radioactivity that was not displaced by 10 μm desmethylimipramine. Specific binding was determined by subtraction of this non-specific level from values for total [^3 H]-imipramine binding which were measured by incubating [^3 H]-imipramine in the absence of displacing drug. Compounds were tested in duplicate test tubes at a concentration of 10 μm. Compounds which inhibited binding by more than 50% were considered to be active.

| Structure (SMILES) | MABP/mm Hg (mean arterial blood pressure) ([1]; 100 mg/kg by gavage) [mm Hg] | inhibition at 10 µM [2] [%] | further results |
| --- | --- | --- | --- |
| N#Cc1ncn2c1N(C(=O)CCN1CCN(Cc3ccc(Cl)cc3)CC1)CC=C2c1cccc(C(F)(F)F)c1 [Example 20, 1-[3-[4-[(4-Chlorophenyl)methyl]-1-piperazinyl]-1-oxopropyl]-1,2-dihydro-4-[3-(trifluoromethyl)phenyl]imidazo[1,5-a]pyrimidine-8-carbonitrile] | 128 | 75 | – |
| N#Cc1ncn2c1N(C(=O)CN1CCC(c3ccccc3)CC1)CC=C2c1cccc(C(F)(F)F)c1 [Example 25, 1,2-Dihydro-1-[(4-phenyl-1-piperidinyl)acetyl]-4-[3-(trifluoromethyl)phenyl]imidazo[1,5-a]pyrimidine-8-carbonitrile] | 137 | – | – |
| N#Cc1ncn2c1N(C(=O)CCN1CCN(c3ccccc3)CC1)CC=C2c1cccc(C(F)(F)F)c1 [Example 17, 1,2-Dihydro-1-[1-oxo-3-(4-phenyl-1-piperazinyl]propyl]-4-[3-(trifluoromethyl)phenyl]imidazo[1,5-a]pyrimidine-8-carbonitrile] | 115 | – | – |
| N#Cc1ncn2c1N(C(=O)CCN1CCN(CCCOc3ccccc3)CC1)CC=C2c1cccc(C(F)(F)F)c1 [Example 21, 1,2-Dihydro-1-[1-oxo-3-[4-(3-phenoxypropyl)-1-piperazinyl]propyl]-4-[3-(trifluoromethyl)phenyl]imidazo[1,5-a]pyrimidine-8-carbonitrile] | – | 66 | – |
| N#Cc1ncn2c1N(C(=O)CCN1CCN(Cc3c(Cl)cccc3Cl)CC1)CC=C2c1cccc(C(F)(F)F)c1 [Example 23, 1-[4-[4-[(2,6-Dichlorophenyl)methyl]-1-piperazinyl]-1-oxopropyl]-1,2-dihydro-4-[3-(trifluoromethyl)phenyl]imidazo[1,5-a]pyrimidine-8-carbonitrile] | – | 98 | – |
| C#CCN1CCN(CC(=O)N2CC=C(c3cccc(C(F)(F)F)c3)n3cnc(C#N)c32)CC1.Cl.Cl [Example 14, 1,2-Dihydro-1-[[4-(2-propynyl)-1-piperazinyl]acetyl]-4-[3-(trifluoromethyl)phenyl]imidazo[1,5-a]pyrimidine-8-carbonitrile, dihydrochloride] | 129 | – | – |
| N#Cc1ncn2c1N(C(=O)CN1CCN(c3ccc(Cl)cc3)CC1)CC=C2c1cccc(C(F)(F)F)c1 [Example 13, 1-[[4-(4-Chlorophenyl)-1-piperazinyl]acetyl]-1,2-dihydro-4-[3-(trifluoromethyl)phenyl]imidazo[1,5-a]pyrimidine-8-carbonitrile] | 137 | – | – |
| COc1cccc(CN2CCN(CC(=O)N3CC=C(c4cccc(C(F)(F)F)c4)n4cnc(C#N)c43)CC2)c1 [Example 5, 1,2-Dihydro-1-[[4-[(3-methoxyphenyl)methyl]-1-piperazinyl]acetyl]-4-[3-(trifluoromethyl)phenyl]imidazo[1,5-a]pyrimidine-8-carbonitrile] | – | – | % Inhibition of [^3 H]-imipramine binding [2]: 81% |
| N#Cc1ncn2c1N(C(=O)CCN1CCN(Cc3ccccc3)CC1)CC=C2c1cccc(C(F)(F)F)c1 [Example 22, 1,2-Dihydro-1-[1-oxo-3-[(4-phenylmethyl)-1-piperazinyl]propyl]-4-[3-(trifluoromethyl)phenyl]imidazo[1,5-a]pyrimidine-8-carbonitrile] | – | 61 | – |
| N#Cc1ncn2c1N(C(=O)CN1CCN(CCCOc3ccccc3)CC1)CC=C2c1cccc(C(F)(F)F)c1 [Example 9, 1,2-Dihydro-1-[[4-(3-phenoxypropyl)-1-piperazinyl]acetyl]-4-[3-(trifluoromethyl)phenyl]imidazo[1,5-a]pyrimidine-8-carbonitrile] | 130 | 50 | – |
| N#Cc1ncn2c1N(C(=O)CCN1CCN(c3ccc(F)cc3)CC1)CC=C2c1cccc(C(F)(F)F)c1 [Example 16, 1-[3-[4-(4-Fluorophenyl)-1-piperazinyl]-1-oxopropyl]-1,2-dihydro-4-[3-(trifluoromethyl)phenyl]imidazo[1,5-a]pyrimidine-8-carbonitrile] | 110 | 78 | – |
| N#Cc1ncn2c1N(C(=O)CN1CCN(C(c3ccccc3)c3ccc(Cl)cc3)CC1)CC=C2c1cccc(C(F)(F)F)c1 (stereo not shown) [Example 10, 1-[[4-[(4-Chlorophenyl)phenylmethyl]-1-piperazinyl]acetyl]-1,2-dihydro-4-[3-(trifluoromethyl)phenyl]imidazo[1,5-a]pyrimidine-8-carbonitrile] | 137 | – | – |
| CC(C)N1CCN(CCC(=O)N2CC=C(c3cccc(C(F)(F)F)c3)n3cnc(C#N)c32)CC1 [Example 24, 1,2-Dihydro-1-[3-[4-(1-methylethyl)-1-piperazinyl]-1-oxopropyl]-4-[3-(trifluoromethyl)phenyl]imidazo[1,5-a]pyrimidine-8-carbonitrile] | – | – | MABP/mm Hg (mean arterial blood pressure) ([1]; 50 mg/kg by gavage): 133 mm Hg |
| COc1cccc(CN2CCN(CC(=O)N3CC=C(c4cccc(C(F)(F)F)c4)n4cnc(C#N)c43)CC2)c1 [Example 6, 1,2-Dihydro-1-[[4-[(3-methoxyphenyl)methyl]-1-piperazinyl]acetyl]-4-[3-trifluoromethyl)phenyl]imidazo[1,5-a]pyrimidine-8-carbonitrile, dihydrochloride] | – | 75 | – |
| CCOC(=O)N1CCN(CCC(=O)N2CC=C(c3cccc(C(F)(F)F)c3)n3cnc(C#N)c32)CC1.Cl [Example 19, 4-[3-[8-Cyano-4-[3-(trifluoromethyl)phenyl]imidazo[1,5-a]pyrimidine-1(2H)-yl]-3-oxopropyl]-1-piperazinecarboxylic acid, ethyl ester monohydrochloride] | 134 | – | – |
| COc1ccc(Cl)cc1NCC(=O)N1CC=C(c2cccc(C(F)(F)F)c2)n2cnc(C#N)c21 [1-[[(5-Chloro-2-methoxyphenyl)amino]acetyl]-1,2-dihydro-4-[3-(trifluoromethyl)phenyl]imidazo[1,5-a]pyrimidine-8-carbonitrile] | 135 | – | – |
| N#Cc1ncn2c1N(C(=O)CCN1CCN(c3ccc(Cl)cc3)CC1)CC=C2c1cccc(C(F)(F)F)c1 [Example 18, 1-[3-[4-(4-Chlorophenyl)-1-piperazinyl]-1-oxopropyl]-1,2-dihydro-4-[3-(trifluoromethyl)phenyl]imidazo[1,5-a]pyrimidine-8-carbonitrile] | 118 | 53 | – |
| N#Cc1ncn2c1N(C(=O)CN1CCN(Cc3ccc(Cl)cc3)CC1)CC=C2c1cccc(C(F)(F)F)c1 [Example 11, 1-[[4-[(4-Chlorophenyl)methyl]-1-piperazinyl]acetyl]-1,2-dihydro-4-[3-(trifluoromethyl)phenyl]imidazo[1,5-a]pyrimidine-8-carbonitrile] | – | 93 | – |
